Where two headings read alike, the source gives them in different places.
Key:
[1] = biological target: human aldose reductase (hALR2) (Homo sapiens, UniProt P15121); test: Inhibition of human aldose reductase (hALR2), methods similar to Butera et al.; format: biochemical; settings: for HALR1/hALR2: ratio of hALR1 IC50 to hALR2 IC50 (selectivity)
Description: Representative compounds of Formula Iwere tested for their potency, selectivity and efficacy as inhibitors of human aldose reductase.
(§1) Since high potency of test compounds as inhibitors of aldose reductase is desirable, low hALR2 IC50 values are sought. On the other hand, high potency of test compounds as inhibitors of aldehyde reductase is undesirable, and high ALR1 IC50s values are sought. Accordingly, the hALR1/hALR2 ratio is used to determine the selectivity of the test compounds. The importance of this selectivity is Described in Kotani, et al., J. Med. Chem. 40: 684, 1997.

[2] = biological target: T1, human aldehyde reductase (hALR1) (Homo sapiens, UniProt P14550); test: Inhibition of human aldehyde reductase (hALR1), methods of Ishii et al.; format: biochemical
T1 sequence (P14550 1-325): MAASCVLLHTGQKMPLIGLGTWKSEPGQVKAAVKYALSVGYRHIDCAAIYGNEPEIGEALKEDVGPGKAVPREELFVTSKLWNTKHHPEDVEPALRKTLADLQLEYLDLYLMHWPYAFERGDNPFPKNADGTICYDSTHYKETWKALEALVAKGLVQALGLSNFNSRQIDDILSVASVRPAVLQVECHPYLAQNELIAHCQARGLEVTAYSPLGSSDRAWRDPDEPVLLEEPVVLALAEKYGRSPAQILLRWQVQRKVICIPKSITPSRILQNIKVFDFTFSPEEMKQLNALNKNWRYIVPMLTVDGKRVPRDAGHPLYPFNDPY
Description: In a second assay, a number of the same compounds were tested for their ability to inhibit aldehyde reductase (hALR1), a structurally related enzyme.
as §1, with “compounds.” for “compounds. The importance of this selectivity is Described in Kotani, et al., J. Med. Chem. 40: 684, 1997.”

Molecule | IC50 [1] [nM] | also measured
O=C(O)Cn1cc(Cc2nc3c(F)c(F)cc(F)c3s2)c2cccc(Br)c21 [Example 21, 7-bromo-3-(4,5,7-trifluorobenzothiazol-2-yl)methyl-indole-N-acetic Acid] | 14 | –
O=C(O)Cn1cc(Cc2nc3cc(C(F)(F)F)ccc3s2)c2ccc(Br)cc21 [Example 27, 6-Bromo-3-(5-trifluoromethylbenzothiazol-2-yl)methyl-indole-N-acetic acid] | 52 | IC50 [2]: < 5000 nM; HALR1/hALR2 [1]: <96
O=C(O)Cn1cc(Cc2cccc([N+](=O)[O-])c2)c2ccccc21 [Example 13, 3-(3-nitrophenyl)methyl-indole-N-acetic Acid] | 73 | IC50 ([2]; read-out: HALR1 (IC50)): 13000 nM; HALR1/hALR2 [1]: 178
O=C(O)Cn1cc(Cc2nc3c(F)c(F)cc(F)c3s2)c2cccc(Cl)c21 [Example 22, 7-chloro-3-(4,5,7-trifluorobenzothiazol-2-yl)methyl-indole-N-acetic Acid] | 9.1 | –
O=C(O)Cn1cc(Cc2nc3c(F)c(F)cc(F)c3s2)c2cc(Oc3ccccc3)ccc21 [Example 19, 5-phenoxy-3-(4,5,7-trifluorobenzothiazol-2-yl)methyl-indole-N-acetic Acid] | 30 | –
CC(C(=O)O)n1cc(Cc2nc3c(F)c(F)cc(F)c3s2)c2ccccc21 (stereo not drawn) [Example 25, 3-(4.5,7-trifluorobenzothiazol-2-yl)methyl-indole-N-2-propionic Acid] | 160 | –
O=C(O)Cn1cc(Cc2nc3c(F)c(F)cc(F)c3s2)c2ccc(F)cc21 [Example 8, 6-fluoro-3-(4,5,7-trifluorobenzothiazol-2-yl)methyl-indole-N-acetic Acid] | 7 | –
Cc1ccc2c(Cc3nc4c(F)c(F)cc(F)c4s3)cn(CC(=O)O)c2c1 [Example 10, 6-methyl-3-(4,5,7-trifluorobenzothiazol-2-yl)methyl-indole-N-acetic Acid] | 5 | –
O=C(O)CCn1cc(Cc2nc3c(F)c(F)cc(F)c3s2)c2ccccc21 [Example 26, 3-(4-5.7-trifluorobenzothiazol-2-yl)methyl-indole-N-3-propionic Acid] | 17 | –
O=C(O)Cn1cc(Cc2nc3c(F)c(F)cc(F)c3s2)c2cc(Cl)ccc21 [Example 2, 5-chloro-3-(4,5,7-Trifluorobenzothiazol-2-yl)methyl-indole-N-acetic Acid] | 10 | –
O=C(O)Cn1cc(Cc2nc3c(F)c(F)cc(F)c3s2)c2cc(F)ccc21 [Example 9, 5-fluoro-3-(4,5,7-trifluorobenzothiazol-2-yl)methyl-indole-N-acetic Acid] | 11 | –
O=C(O)Cn1cc(Cc2nc3c(F)c(F)cc(F)c3s2)c2cc(N3CCOCC3)ccc21 [Example 17, 5-morpholino-3-(4,5.7-trifluorobenzothiazol-2-yl)methyl-indole-N-acetic Acid] | 8 | –
O=C(O)Cn1cc(Cc2nc3c(F)c(F)cc(F)c3s2)c2c(Cl)cccc21 [Example 29, 4-Chloro-3-(4,5,7-trifluorobenzothiazol-2yl) methyl-indole-N-acetic Acid] | 11 | –
O=C(O)Cn1cc(Cc2nc3c(F)c(F)cc(F)c3s2)c2ccc(-c3ccccc3)cc21 [Example 16, 6-phenyl-3-(4,5,7-trifluorobenzothiazol-2-yl)methyl-indole-N-acetic Acid] | 25 | IC50 [2]: 6200 nM; HALR1/hALR2 [1]: 248
O=C(O)Cn1cc(Cc2nc3c(F)c(F)cc(F)c3s2)c2cc(Br)ccc21 [Example 31, 5-Bromo-3-(4,5.7-trifluorobenzothiazol-2-yl) methyl-indole-N-acetic acid] | 13 | IC50 [2]: 9700 nM; HALR1/hALR2 [1]: 746
3-[6-Fluorbenzothiazole-2-yl]methyl-indole-N-acetic Acid [Example 24] | – | HALR1/hALR2 [1]: 4

Molecule | IC50 [1] [nM] | also measured
Cc1c(Cc2nc3c(F)c(F)cc(F)c3s2)c2ccccc2n1CC(=O)O [Example 1, 2-methyl-3-(4,5,7-trifluorobenzothiazol-2-yl)methyl-indole-N-acetic Acid] | 8 | –
Cc1ccc2c(c1)c(Cc1nc3cc(C(F)(F)F)ccc3s1)cn2CC(=O)O [Example 12, 5-Methyl-3-(5-Trifluoromethylbenzothiazol-2-yl)methyl-indole-N-acetic Acid] | 102 | IC50 [2]: 10000 nM; HALR1/hALR2 [1]: 98
O=C(O)Cn1cc(Cc2nc3c(F)c(F)cc(F)c3s2)c2cc(-c3ccccc3)ccc21 [Example 15, 5-phenyl-3-(4,5,7-trifluorobenzothiazol-2-yl)methyl-indole-N-acetic acid] | 53 | –
Cc1ccc2c(c1)c(Cc1nc3c(F)c(F)cc(F)c3s1)cn2CC(=O)O [Example 4, 5-methyl-3-(4,5,7-trifluorobenzothiazol-2-yl)methyl-indole-N-acetic Acid] | 8 | –
COc1ccc2c(Cc3nc4c(F)c(F)cc(F)c4s3)cn(CC(=O)O)c2c1 [Example 28, 6-Methoxy-3-(4,5,7-trifluorobenzothiazol-2-yl)methyl-indole-N-acetic acid] | 5 | –
O=C(O)Cn1cc(Cc2nc3c(F)c(F)cc(F)c3s2)c2ccc(Cl)cc21 [Example 6, 6-chloro-3-(4,5,7-trifluorobenzothiazol-2-yl)methyl-indole-N-acetic Acid] | 8 | –
Cc1cccc2c(Cc3nc4c(F)c(F)cc(F)c4s3)cn(CC(=O)O)c12 [Example 5, 7-methyl-3-(4,5,7-trifluorobenzothiazol-2-yl)methyl-indole-N-acetic Acid] | 6 | –
O=C(O)Cn1cc(Cc2nc3cc(C(F)(F)F)ccc3s2)c2ccccc21 [Example 11, 3-(5-trifluoromethylbenzothiazol-2-yl)methyl-indole-N-acetic Acid] | 99 | –
O=C(O)Cn1cc(Cc2nc3c(F)c(F)cc(F)c3s2)c2cccc(F)c21 [Example 20, 7-fluoro-3-(4,5,7-trifluorobenzothiazol-2-yl)methyl-indole-N-acetic Acid] | 7 | –
O=C(O)Cn1cc(Cc2nc3c(F)c(F)cc(F)c3s2)c2cc(OCc3ccccc3)ccc21 [Example 7, 5-benzyloxy-3-(4,5,7-trifluorobenzothiazol-2-yl)methyl-indole-N-acetic Acid] | 12 | –
COc1ccc2c(c1)c(Cc1nc3c(F)c(F)cc(F)c3s1)cn2CC(=O)O [Example 30, 5-Methoxy-3-(4,5,7-trifluorobenzothiazol-2-yl) methyl-indole-N-acetic Acid] | 7.7 | –
O=C(O)Cn1cc(Cc2nc3c(F)c(F)cc(F)c3s2)c2ccc(N3CCOCC3)cc21 [Example 18, 6-morpholino-3-(4,5,7-trifluorobenzothiazol-2-yl) methyl-indole-N-acetic Acid] | – | IC50 ([2]; read-out: HALR1 (IC50)): > 100000 nM; HALR1/hALR2 [1]: >6,700; IC50 ([1]; read-out: hALR2 (IC50)): 15 nM
O=C(O)Cn1cc(Cc2nc3cc(F)ccc3s2)c2ccccc21 [Example 23, 3-[5-Fluorbenzothiazole-2-yl]methyl-indole-N-acetic Acid] | 9 | IC50 [2]: 6500 nM; HALR1/hALR2 [1]: 720
O=C(O)Cn1cc(Cc2nc3ccc(Cl)cc3s2)c2ccccc21 [Example 32, 3-(6-chlorobenzothiazol-2-yl) methyl-indole-N-acetic Acid] | 660 | –
O=C(O)Cn1c(-c2ccccc2)c(Cc2nc3c(F)c(F)cc(F)c3s2)c2ccccc21 [Example 14, 2-phenyl-3-(4,5,7-trifluorobenzothiazol-2-yl)methyl-indole-N-acetic Acid] | 101 | –
